Molecular target: Human TASK-1 channels (Homo sapiens (Human), UniProt O14649)
Test: Determination of the activity on the TASK-1 channel in Xenopus oocytes (two-microelectrode voltage clamp)
Type: cell-based
Settings: for IC50: human TASK-1 expressed in Xenopus oocytes, room temperature, read-out: IC50 value for TASK-1 inhibition; for inhibition at 5 µM: compound concentration 5 μM
How it was run: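 Xenopus oocytes were injected with human TASK-1 cRNA and recorded two days later by two-microelectrode voltage clamp, holding at −90 mV with 500 ms steps to 40 mV. Superfusion used ND96, pH 7.4, at room temperature, with rising compound concentrations; percentage inhibition of control current was fitted to a dose-response curve for IC50.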

Sequence of Human TASK-1 channels (O14649 whole entry): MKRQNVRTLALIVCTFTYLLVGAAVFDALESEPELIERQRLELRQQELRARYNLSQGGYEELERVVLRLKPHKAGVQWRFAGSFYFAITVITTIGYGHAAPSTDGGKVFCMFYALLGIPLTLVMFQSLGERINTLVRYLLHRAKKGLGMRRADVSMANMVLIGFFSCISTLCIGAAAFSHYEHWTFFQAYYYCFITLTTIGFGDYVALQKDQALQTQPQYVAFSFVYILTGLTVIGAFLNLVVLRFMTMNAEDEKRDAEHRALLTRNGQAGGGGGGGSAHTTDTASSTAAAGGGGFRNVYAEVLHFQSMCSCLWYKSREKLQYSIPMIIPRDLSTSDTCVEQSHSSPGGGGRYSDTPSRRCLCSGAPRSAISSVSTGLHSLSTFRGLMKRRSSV

| SMILES | IC50 [nM] | inhibition at 5 µM [%] |
| --- | --- | --- |
| CC[C@@H](NC(=O)c1cc(C(=O)NCCc2ccc(F)cc2)n2c1CCCC2)c1ccccc1 [16mx, 5,6,7,8-Tetrahydro-indolizine-1,3-dicarboxylic acid 3-{[2-(4-fluoro-phenyl)-ethyl]-amide} 1-[((R)-1-phenyl-propyl)-amide]] | 97 |  |
| CC[C@@H](NC(=O)c1cc(C(=O)NCC2CCCC2)n2c1CCCC2)c1ccccc1 [16my, 5,6,7,8-Tetrahydro-indolizine-1,3-dicarboxylic acid 3-cyclopentylmethyl-amide 1-[((R)-1-phenyl-propyl)-amide]] | 120 |  |
| CC[C@@H](NC(=O)c1cc(C(=O)N[C@@H](C)C2CC2)n2c1CCCC2)c1ccccc1 [16mz, 5,6,7,8-Tetrahydro-indolizine-1,3-dicarboxylic acid 3-[((S)-1-cyclopropyl-ethyl)-amide] 1-[((R)-1-phenyl-propyl)-amide]] | 42 |  |
| CC[C@@H](NC(=O)c1cc(C(=O)N2CCC[C@@H]2C(=O)OC(C)C)n2c1COCC2)c1ccccc1 [16n] | 140 |  |
| CC[C@@H](NC(=O)c1cc(C(=O)NCC(CC2CC2)c2ccccc2)n2c1CCCC2)c1ccccc1 (stereo partly drawn) [16na, 5,6,7,8-Tetrahydro-indolizine-1,3-dicarboxylic acid 3-[(3-cyclopropyl-2-phenyl-propyl)-amide] 1-[((R)-1-phenyl-propyl)-amide]] | 1700 |  |
| CC[C@@H](NC(=O)c1cc(C(=O)N2CCOCC2)n2c1CCCC2)c1ccccc1 [16nc, 3-(Morpholine-4-carbonyl)-5,6,7,8-tetrahydro-indolizine-1-carboxylic acid ((R)-1-phenyl-propyl)-amide] | 2000 |  |
| CC[C@@H](NC(=O)c1cc(C(=O)Nc2c(C)noc2C)n2c1CCCC2)c1ccccc1 [16nd, 5,6,7,8-Tetrahydro-indolizine-1,3-dicarboxylic acid 3-[(3,5-dimethyl-isoxazol-4-yl)-amide] 1-[((R)-1-phenyl-propyl)-amide]] | 210 |  |
| CC[C@@H](NC(=O)c1cc(C(=O)Nc2cncc(F)c2)n2c1CCCC2)c1ccccc1 [16ne, 5,6,7,8-Tetrahydro-indolizine-1,3-dicarboxylic acid 3-[(5-fluoro-pyridin-3-yl)-amide] 1-[((R)-1-phenyl-propyl)-amide]] |  | 83 |
| CC[C@@H](NC(=O)c1cc(C(=O)NCc2ccccc2)n2c1CCCC2)c1ccccc1 [16nf, 5,6,7,8-Tetrahydro-indolizine-1,3-dicarboxylic acid 3-benzylamide 1-[((R)-1-phenyl-propyl)-amide]] | 110 |  |
| CC[C@@H](NC(=O)c1cc(C(=O)NCC2(c3ccccc3)CCCC2)n2c1CCCC2)c1ccccc1 [16ng, 5,6,7,8-Tetrahydro-indolizine-1,3-dicarboxylic acid 3-[(1-phenyl-cyclopentylmethyl)-amide] 1-[((R)-1-phenyl-propyl)-amide]] |  | 55 |
| CC[C@@H](NC(=O)c1cc(C(=O)N2CCC[C@@H]2C)c2n1CCOC2)c1ccccc1Cl [16nh, 8-((S)-2-Methyl-pyrrolidine-1-carbonyl)-3,4-dihydro-1H-pyrrolo[2,1-c][1,4]oxazine-6-carboxylic acid [(R)-1-(2-chloro-phenyl)-propyl]-amide] | 90 |  |
| CC[C@@H](NC(=O)c1cc(C(=O)N2CCC[C@@H]2C)c2n1CCOC2)c1ccccc1C(F)(F)F [16ni, 8-((S)-2-Methyl-pyrrolidine-1-carbonyl)-3,4-dihydro-1H-pyrrolo[2,1-c][1,4]oxazine-6-carboxylic acid [(R)-1-(2-trifluoromethyl-phenyl)-propyl]-amide] | 290 |  |
| CC[C@@H](NC(=O)c1cc(C(=O)N2CCC[C@@H]2C)c2n1CCOC2)c1ccc(C#N)nc1 [16nj, 8-((S)-2-Methyl-pyrrolidine-1-carbonyl)-3,4-dihydro-1H-pyrrolo[2,1-c][1,4]oxazine-6-carboxylic acid [(R)-1-(6-cyano-pyridin-3-yl)-propyl]-amide] | 2000 |  |
